Reference: patent US10226448B2, “3-(1H-pyrrolo[3,2-C]pyridin-2-yl)-1H-pyrazolo[3,4-B]pyridines and therapeutic uses thereof” (Samumed, LLC, priority 2015, dated 2019)

Assays:
Assay type in all cases: cell-based
[1] = system: IL-6 in THP-1 cells; test: IL-6 inhibition in LPS-stimulated THP-1 human monocyte cells (HTRF); settings: for EC50: IL-6 inhibition, LPS-stimulated THP-1 cells, HTRF, 10-point dose-response starting from 10 μM; for inhibition at 10 µM: THP-1, read-out: percentage in parentheses beside EC50 >10
Method: Compound Screening: THP-1 cells were cultured in basal media with 1% FBS for 24 hours before the start of the assay. […] THP-1 cells were plated at 5000 cells/well in the 384-well plates and incubated at 37° C. for 2 h. 500 ng/mL of LPS was added after 2 hours and cells were incubated for another 22 hours at 37° C. Plates were spun in a centrifuge for 1 minute at […] and a mixture of anti-IL6 XL665, and anti-IL6 Cryptate diluted in reconstitution buffer (Cisbio Inc.) was added to each well. Following incubation for 3 hrs at room temperature, Homogeneous Time-Resolved Fluorescence (HTRF) was measured using the Envision (Perkin Elmer) at 665 nm and […]. The ratio of fluorescence at 665 nm to 620 nm was used as a readout for IL6 quantification. All samples were processed in duplicate. Readings were normalized to DMSO treated cells and normalized activities were utilized for EC50 calculations using the dose-response log (inhibitor) vs. response variable slope (four parameters) nonlinear regression feature available in GraphPad Prism 5.0 (or Dotmatics).

[2] = system: Wnt activity (Sp5-Luc reporter, TCF/LEF binding sites) in SW480 colon carcinoma cells; test: Wnt activity screening assay: Sp5-Luc reporter gene assay in SW480 cells; settings: Homo sapiens; for EC50: Sp5-Luc reporter, SW480 cells, overnight incubation; for inhibition at 10 µM: SW480, read-out: percent inhibition at 10 μM
Excerpt: The screening assay for Wnt activity is described as follows. Reporter cell lines can be generated by stably transducing cancer cell lines (e.g., colon cancer) or primary cells (e.g., IEC-6 intestinal cells) with a lentiviral construct that includes a Wnt-responsive promoter driving expression of the firefly luciferase gene.
SW480 colon carcinoma cells were transduced with a lentiviral vector expressing luciferase with a human Sp5 promoter consisting of a sequence of eight TCF/LEF binding sites. SW480 cells stably expressing the Sp5-Luc reporter gene and a hygromycin resistance gene were selected by treatment with 150 μg/mL of hygromycin for 7 days. These stably transduced SW480 cells were expanded in cell culture and used for all further screening activities. […] For Sp5-Luc reporter gene assays, the cells were plated at 4,000 cells/well in 384-well plates with medium containing 1% fetal bovine serum and incubated overnight at 37° C. and 5% CO2. Following incubation, 20 μl of BrightGlo luminescence reagent (Promega) was added to each well of the 384-well assay plates. The plates were placed on an orbital shaker for 2 min and then luminescence was quantified using the Envision (Perkin Elmer) plate reader. Readings were normalized to DMSO only treated cells, and normalized activities were utilized for EC50 calculations using the dose-response log (inhibitor) vs. response variable slope (four parameters) nonlinear regression feature available in GraphPad Prism 5.0 (or Dotmatics).

[3] = system: SW480 colon cancer cells; test: Cell viability assay (CellTiter-Blue) in SW480 colon cancer cells; settings: Homo sapiens; for EC50: 96 h, SW480 cell viability, four days, CellTiter-Blue; for inhibition at 10 µM: SW480, read-out: percent inhibition at 10 μM
Method: Representative compounds were screened using the following assay procedure to assess the effect on cell viability as described below.
Approximately 2×10^3 SW480 colon cancer cells were seeded into each well and allowed to incubate in the presence or absence of compound for four days at 37° C./5% CO2. Eight replicates of DMSO-treated cells served as controls and cells treated with compound were performed in duplicate.
After incubation, 20 μL of CellTiter-Blue (Promega) was added to each well allowed to incubate for approximately 3 hours. This reagent was a buffered solution which contains resazurin, metabolically active cells were able to reduce rezarurin (blue) into resorufin (pink) which was highly fluorescent. This measured fluorescence was used as a readout for cell viability.

[4] = system: LL29 cells (primary human fibroblasts derived from IPF patients), α-smooth muscle actin; test: Inhibition of the fibrotic process: αSMA staining in TGF-β1 treated primary human fibroblasts from IPF patients (LL29 cells); settings: Fibroblast; for EC50: 96 h, LL29 cells, TGF-β1 20 ng/mL, 4 days, % αSMA positive cells; for inhibition at 10 µM: read-out: percent inhibition at 10 μM
Method: Representative compounds were screened using primary human fibroblasts (derived from IPF patients) treated with TGF-β1 to determine their ability to inhibit the fibrotic process.
LL29 cells are plated at 1,500 cells/well in 80 μL/well F12 medium supplemented with 1% Fetal Bovine Serum. […] Wells treated with TGF-β1 and containing DMSO were used as controls. […] Following incubation for 4 days, SYTOX green nucleic acid stain (Life Technologies [Thermo Fisher Scientific]) was added to the wells at a final concentration of 1 μM and incubated at room temperature for 30 min.

[5] = system: primary human mesenchymal stem cells (hMSCs); test: Induction of chondrogenesis in primary human mesenchymal stem cells (chondrogenic nodules, Rhodamine B / Nile Red); settings: 6 days; for EC50: concentration required to induce 50% levels of chondrogenesis vs TGF-β3, read-out: Conc (nM) of 50% TGF-β3 activity; for Emax: relative to TGF-β3 (10 ng/mL) positive control, read-out: Max. Activity as % TGF-β3 activity
Excerpt: Representative compounds were screened using primary human mesenchymal stem cells (hMSCs) to determine their ability to induce chondrogenesis (process by which cartilage is developed).
Human Mesenchymal Stem Cell Culture: Primary human mesenchymal stem cells (hMSCs) were purchased from Lonza (Walkersville, Md.) and expanded in Mesenchymal Stem Cell Growth Media (Lonza). Cells between passage 3 and 6 were used for the experiments.
To image chondrogenic nodules, the cells were fixed using 4% formaldehyde (Electron Microscopy Sciences), and stained with 2 μg/mL Rhodamine B (Sigma-Aldrich) and 20 μM Nile Red (Sigma-Aldrich) [Johnson K., et. al, A Stem Cell-Based Approach to Cartilage Repair, Science, (2012). […] Number of nodules in each well was normalized to the average of 3 DMSO treated wells on the same plate using Excel (Microsoft Inc.). The normalized averages (fold change over DMSO) of 3 replicate wells for each compound concentration were calculated. Due to solubility limitations of some of the compounds, curve fitting was incomplete leading to inaccurate EC50 determinations.
Using TGF-β3 as a positive control, the concentration of representative compounds required to induce 50% levels of chondrogenesis is reported. In addition, the maximum activity of each compound and the respective dose that each compound reached maximum chondrogenesis activity is reported.

Compound	EC50 [1]	EC50 [2]	EC50 [3]	EC50 [5]	EC50 [4]	Emax [5]	inhibition at 10 µM [1]	inhibition at 10 µM [2]	inhibition at 10 µM [3]	inhibition at 10 µM [4]
Fc1cccc(-c2nccc3[nH]c(-c4n[nH]c5ncc(-c6cccnc6)cc45)cc23)c1 [Compound 4, 3-(4-(3-Fluorophenyl)-1H-pyrrolo[3,2-c]pyridin-2-yl)-5-(pyridin-3-yl)-1H-pyrazolo[3,4-b]pyridine]	0.09 µM	464 nM	3210 nM	–	440 nM	50%	–	–	–	–
CC(C)C(=O)Nc1cncc(-c2cnc3[nH]nc(-c4cc5c(-c6cccc(F)c6)nccc5[nH]4)c3c2)c1 [Compound 9, N-(5-(3-(4-(3-Fluorophenyl)-1H-pyrrolo[3,2-c]pyridin-2-yl)-1H-pyrazolo[3,4-b]pyridin-5-yl)pyridin-3-yl)isobutyramide]	0.206 µM	575 nM	770 nM	–	622 nM	29%	–	–	–	–
Fc1ccc(-c2nccc3[nH]c(-c4n[nH]c5ncc(-c6cncc(CN7CCCC7)c6)cc45)cc23)cc1 [Compound 42, 3-(4-(4-Fluorophenyl)-1H-pyrrolo[3,2-c]pyridin-2-yl)-5-(5-(pyrrolidin-1-ylmethyl)pyridin-3-yl)-1H-pyrazolo[3,4-b]pyridine]	3.99 µM	1570 nM	535 nM	10 nM	720 nM	105%	–	–	–	–
Fc1cccc(-c2nccc3[nH]c(-c4n[nH]c5ncc(C6CCNCC6)cc45)cc23)c1 [Compound 505, 3-(4-(3-Fluorophenyl)-1H-pyrrolo[3,2-c]pyridin-2-yl)-5-(piperidin-4-yl)-1H-pyrazolo[3,4-b]pyridine]	3.45 µM	3850 nM	4470 nM	–	5550 nM	–	–	–	–	–
c1cc2[nH]c(-c3n[nH]c4ncc(-c5cncc(OC6CCCCC6)c5)cc34)cc2c(N2CCCCC2)n1 [Compound 607, 5-(5-(Cyclohexyloxy)pyridin-3-yl)-3-(4-(piperidin-1-yl)-1H-pyrrolo[3,2-c]pyridin-2-yl)-1H-pyrazolo[3,4-b]pyridine]	7.28 µM	3980 nM	3540 nM	–	1990 nM	–	–	–	–	–
CN1CCN(c2nccc3[nH]c(-c4n[nH]c5ncc(-c6cncc(NC(=O)CC7CCNCC7)c6)cc45)cc23)CC1 [Compound 641, N-(5-(3-(4-(4-Methylpiperazin-1-yl)-1H-pyrrolo[3,2-c]pyridin-2-yl)-1H-pyrazolo[3,4-b]pyridin-5-yl)pyridin-3-yl)-2-(piperidin-4-yl)acetamide]	> 10 µM	> 10000 nM	> 10000 nM	–	> 10000 nM	–	7.6%	0%	6.5%	0%

Further lines, with some results ahead:

EC50 [1]	EC50 [2]	EC50 [3]	EC50 [5]	Compound	EC50 [4]	Emax [5]	inhibition at 10 µM [1]	inhibition at 10 µM [2]	inhibition at 10 µM [3]	inhibition at 10 µM [4]
0.242 µM	272 nM	630 nM	300 nM	CCC(=O)Nc1cncc(-c2cnc3[nH]nc(-c4cc5c(-c6cccc(F)c6)nccc5[nH]4)c3c2)c1 [Compound 1, N-(5-(3-(4-(3-Fluorophenyl)-1H-pyrrolo[3,2-c]pyridin-2-yl)-1H-pyrazolo[3,4-b]pyridin-5-yl)pyridin-3-yl)propionamide]	606 nM	114%	–	–	–	–
6.42 µM	3260 nM	773 nM	10 nM	CN(C)Cc1cncc(-c2cnc3[nH]nc(-c4cc5c(-c6cccc(F)c6)nccc5[nH]4)c3c2)c1 [Compound 13, 1-(5-(3-(4-(3-Fluorophenyl)-1H-pyrrolo[3,2-c]pyridin-2-yl)-1H-pyrazolo[3,4-b]pyridin-5-yl)pyridin-3-yl)-N,N-dimethylmethanamine]	2440 nM	110%	–	–	–	–
1.55 µM	996 nM	523 nM	–	CC(C)CC(=O)Nc1cncc(-c2cnc3[nH]nc(-c4cc5c(-c6ccc(F)cc6)nccc5[nH]4)c3c2)c1 [Compound 30, N-(5-(3-(4-(4-Fluorophenyl)-1H-pyrrolo[3,2-c]pyridin-2-yl)-1H-pyrazolo[3,4-b]pyridin-5-yl)pyridin-3-yl)-3-methylbutanamide]	261 nM	107%	–	–	–	–
3.23 µM	980 nM	553 nM	–	CC(C)(C)C(=O)Nc1cncc(-c2cnc3[nH]nc(-c4cc5c(-c6ccc(F)cc6)nccc5[nH]4)c3c2)c1 [Compound 36, N-(5-(3-(4-(4-Fluorophenyl)-1H-pyrrolo[3,2-c]pyridin-2-yl)-1H-pyrazolo[3,4-b]pyridin-5-yl)pyridin-3-yl)pivalamide]	579 nM	44%	–	–	–	–
> 10 µM	> 10000 nM	839 nM	30 nM	CCCCC(=O)Nc1cncc(-c2cnc3[nH]nc(-c4cc5c(-c6ccc(F)cc6)nccc5[nH]4)c3c2)c1 [Compound 47, N-(5-(3-(4-(4-Fluorophenyl)-1H-pyrrolo[3,2-c]pyridin-2-yl)-1H-pyrazolo[3,4-b]pyridin-5-yl)pyridin-3-yl)pentanamide]	73 nM	85%	24.7%	46.9%	–	–
> 10 µM	> 10000 nM	> 10000 nM	–	CS(=O)(=O)NCc1cc(F)cc(-c2nccc3[nH]c(-c4n[nH]c5ncc(-c6cncc(CNCc7ccccc7)c6)cc45)cc23)c1 [Compound 500, N-(3-(2-(5-(5-((Benzylamino)methyl)pyridin-3-yl)-1H-pyrazolo[3,4-b]pyridin-3-yl)-1H-pyrrolo[3,2-c]pyridin-4-yl)-5-fluorobenzyl)methanesulfonamide]	> 10000 nM	–	31.3%	19.1%	23.4%	18.3%
> 10 µM	768 nM	2480 nM	–	Oc1cncc(-c2cnc3[nH]nc(-c4cc5c(-c6cccs6)nccc5[nH]4)c3c2)c1 [Compound 709, 5-(3-(4-(Thiophen-2-yl)-1H-pyrrolo[3,2-c]pyridin-2-yl)-1H-pyrazolo[3,4-b]pyridin-5-yl)pyridin-3-ol]	289 nM	–	48.9%	–	–	–
